Patent publication US8563603B2, “Polycyclic compounds and methods related thereto” (Cornell University, priority 2008, dated 2013)

Experiments:
[1] = system: human breast cancer cell line MD-MBA-231; assay: Bioactivity-guided percent apoptosis, Annexin V/Propidium iodide FACS, 48-h incubation; type: cell-based; parameters: key: % of cells (Annexin V/PI FACS); conditions: Table E5; Dose 100
Protocol: Apoptosis was evaluated against human breast cancer cell line MD-MBA-231. Cells were maintained in RPMI 1640 medium (PAA Laboratories GmbH, Teddington Middlesex, UK) supplemented with 10% heat-inactivated tetracycline-free fetal calf serum (PAA Laboratories) and 2 mM L-glutamine, 100 units/ml penicillin, and 100 μg/ml streptomycin (Gibco, Grand Island, N.Y.). Cells were propagated and cultured at 37° C. in a 100% relative humidified atmosphere consisting of 5% C02 and 95% air. Cells were trypsinized with 0.05% Trypsin-0.2% EDTA (w/v) solution.
The bioactivity-guided isolation of the compounds was performed using percent apoptosis in human breast cancer cells (cell line MD-MBA-231) as the reporter. Cells were seeded in a standard 24-well microtiter plate at a density of 1.5×10^4 cells/well in […] tissue culture medium. After a 24-h incubation period cells were treated with individual fractions from the wood of Guaiacum officinale L. Test compounds were mixed in solution using DMSO as vehicle (10 μg extract/1 ml DMSO), at 30 μl. Following a 48-h incubation period, the induction of apoptosis in cell cultures was analyzed by fluorescence-activated cell sorter (FACS Caliber Becton Dickinson, San Jose, Calif.), double staining with Annexin V/Propidium iodide.
Three fractions were chosen for further evaluation based on their apoptotic activity, yields, and simplicity of their HPLC profiles. Fraction 5 was obtained by combining F5 and F6, and fraction 13 by combining fractions 13 and 14. Fraction 8 was not combined with any other. Combinations were based on TLC profiles, (FIG. 17). The percent apoptosis was calculated by using Annexin V/FITC staining and flow cytometry (Table E4).

[2] = system: cell line MD-MBA-231; assay: Cell cycle analysis by DNA content (hypotonic PI staining, flow cytometry); type: cell-based, human; conditions: for % events in sub G0 (apoptotic events) / effect on cell populations in S-phase, significance / effect on cell population in G2/M / singlet count: 1.2, 6.0, 30.0 ppm; for % events in sub G0 (apoptotic events) / effect on cell populations in S-phase, significance / % of cells in S-phase / effect on cell population in G2/M / singlet count: 24 h
Protocol: Twenty-four hours after exposure to compounds, 25×10^4 cells in 1.5 ml cells were simply re-suspended following either the Annexin V/FITC assay or the trypsin procedures. Cells were centrifuged at 1000-x g at room temperature and washed in 0.5 ml of hypotonic staining solution. Cells were kept a minimum of 30 min. at 4° C. in the dark. Samples were usually analyzed by flow cytometry on the same day or at 24 hrs. Resulting DNA distributions were analyzed for the proportion of cells in apoptosis and in G0/G1, S, and G2/M phases of the cell cycle. Singlet events were gated and 10,000-20,000 events were acquired within the gated region. All experiments were repeated at least three times, each in duplicate.
The cell cycle comprises steps that regulate the correct temporal sequence of events that control the growth, reproduction and differentiation of cells. The cell cycle consists of 4 phases: G0/G1, S (DNA synthesis), G2, and M (mitosis). In addition, checkpoints located in the cell cycle transition ensure that cell growth and division occur in response to appropriate signals and environment. When proliferating, if cells are subjected to DNA damage the cell cycle temporarily pauses either at G1, S or G2 phase. Arrest at these checkpoints prevents DNA replication and mitosis in the presence of unrepaired DNA damage and presumably allows time for DNA repair to occur. The proportion of cells that arrest in G1, S or G2 after damage depends on cell type, growth conditions, type of damage and the checkpoints operative in the cells. Shifts in the redistribution of phases of the cell cycle in response to various stimuli can be readily assessed by flow cytometry. DNA content analysis with the use of PI is one of the most common assays. The use of intercalating dyes to measure DNA content are the most common and are usually sufficient to determine relative shifts in the phases of the cell cycle. The hypotonic solution lyses the plasma membrane and prevents many of the aggregate problems associated with fixed cells. Propidium Iodide(PI) passes through permeabilized cell membranes and intercalates with cellular DNA. Therefore, the intensity of the PI signal is directly proportional to DNA content. DNA content experiments determine the percent induction of apoptosis and relative distribution of the cell cycle phases.
The percent of apoptotic cells (cells with fractional DNA content; sub G1 cells) were established by estimating the percentage of events showing up in sub G0. The Sub-G1 method relies on the fact that after DNA fragmentation, there are small fragments of DNA that may be eluted. However in order to be seen in the Sub G1 area, a cell must have lost enough DNA to appear there; so if cells enter apoptosis from the S or G2/M phase of the cell cycle or if there is an aneuploid population undergoing apoptosis, they may not appear in the Sub G1 peak. The number of events in sub G1 (number of nuclear fragments) provides no information on the # of cells undergoing apoptosis.

[3] = system: Human breast cancer cell line MB-MDA-231; assay: Annexin V FITC / PI apoptosis detection by flow cytometry, 24 h; type: cell-based; conditions: 24 h; for early stage apoptosis, FITC (+)/PI (−) staining, significance: 1.2, 6.0, 30.0 ppm
Protocol: Human breast cancer cell line MB-MDA-231 were cultured in Dulbecco's Modified Eagle's medium (DMEM-Sigma, D-5648), supplemented with 10% (heat-inactivated) Fetal Bovine Serum (Atlanta Biologicals, Inc.) and Antibiotic Solution, 100× (Sigma A-9909). Cells were gown at 37° C., at 5-7% CO2, and 95% humidity and were obtained from the American Type Culture Collection (ATCC). Cells were trypsinized with 0.05% Trypsin-0.2% EDTA (w/v) solution (Invitrogen Corporation, Carlsbad, Calif.).
The induction of apoptosis in MB-MDA-231 was analyzed using a well-validated Annexin V FITC apoptosis detection kit (Calbiochem), Darzynkiewicz, 1998. The phosphatidylserine (PS)-specific dye Annexin-V is used to detect apoptotic-specific changes to the organization of phospholipids leading to exposure of PS on the cell surface that precedes nuclear breakdown, DNA fragmentation, and the appearance of most apoptosis-associated molecules. For these studies cells were seeded at 25×10^4 cells/1.5 ml in a 24 well microtiter plate. Cells were allowed to adhere to plates for 24 h, and then exposed to lignans of the present invention at 5-fold dilutions of 30 μl, 6 μl, and 1.2 μl per well for 24 h. Test compounds were mixed in solution using DMSO as vehicle (10 mg extract/1 ml DMSO). Camptothecin was used as a positive control. Following the incubation period 700 μl of suspended cells were transferred to 15 ml conical tubes. Cells that remained adhered to the 24-well plates were gently washed with PBS (137 mM NaCl, 2.7 mM KCL, 4.3 mM Na2HPO4-7H2O, 1.4 mM KH2PO4, adjusted to pH 7.4), trypsinized with 1 ml of solution (0.05% Trypsin—0.2% EDTA [w/v]), and resuspended with the suspended cells/media collected in the 15 ml conical tubes from the previous step. 10 μl of media-binding reagent and 1.25 μl Annexin V-FITC was added to the 15 ml conical tubes containing both the 700 μl of suspended cells and the resuspended cells and incubated at room temperature for 15 min, at 18-24° C., in the dark. Tubes were centrifuged for 5 minutes at 1000×g at room temperature. Media was removed and cells were gently resuspended in 0.5 ml cold 1×binding buffer (dilution; 5× Binding Buffer concentrate 1:5 with dH2O) and placed on ice. 10 μl of propidium iodide was added to each tube. Cells were placed on ice away from light and analyzed immediately by flow cytometry. The dual fluorescence emissions of the respective dyes were detected in cell preparations on a BD-Biosciences FACS Aria high-speed flow cytometer/cell sorter utilizing a quartz cuvette for interrogation. To quantify the Annexin V (FL1 at 518 nm) and propidium iodide (620 nm) signals, apoptosis-induced cells (CPT) stained with FITC only and apoptosis-induced cells (CPT) labeled with only propidium iodide were utilized. Necessary adjustments were made to minimize overlap between these two measurements. Typically, 10,000-20,000 cells were scored for each sample and classified as either viable, early apoptotic, or late apoptotic or necrotic. All experiments were repeated at least three times, each in duplicate.
The principal of the Annexin V/FITC assay is that, Annexin V, an anticoagulant protein, preferentially binds negatively charged phospholipids. Early in the apoptotic process, phospholipid asymmetry is disrupted leading to the exposure of phosphatidylserine (PS) on the outer leaflet of the cytoplasmic membrane. Annexin V binds to the negatively charged calcium-dependent PS. Conjugating FITC to Annexin V with simultaneous propidium iodide (PI) staining allows bivariate analysis of intact cells. Live, healthy cells are double negative, FITC (−)/PI (−), and are seen in the lower left quadrant [A3] of FACS cytograms. Cells that are FITC (+)/PI (−) [A4] are early apoptotic. Cell populations that are advanced apoptotic or necrotic are FITC (+)/PI (+) are located in quadrant [A2]. […]

Row | SMILES | Apoptosis [1] | Necrosis [1] | % events in sub G0 (apoptotic events) [2] | effect on cell populations in S-phase, significance [2] | % of cells in S-phase ([2]; 30 ppm) | late stage apoptotic cell death count, FITC (+)/PI (+) ([3]; highest concentration) | effect on cell population in G2/M [2] | singlet count [2] | early stage apoptosis, FITC (+)/PI (−) staining, significance [3] | early apoptosis surpassing that induced by camptothecin ([3]; 30 ppm) | % of cells in S-phase ([2]; 1.2 ppm) | % of cells in S-phase ([2]; 6.0 ppm) | early apoptosis surpassing that induced by camptothecin ([3]; 6.0 ppm) | increase in % events at G2/M over isonectandrin B and nectandrin B ([2]; highest treatment) | increase in % events at G2/M over untreated cells ([2]; highest treatment)
1 | C=C1[C@@H](c2ccc(O)c(OC)c2)O[C@@H](c2ccc(O)c(OC)c2)[C@@]12CCC1=C(C2)[C@@H](c2ccc(O)c(OC)c2)O[C@H]1c1ccc(O)c(OC)c1 [I-a] | 90.12 | 0.82 | strong apoptotic activity at 6.0 ppm, but then declined somewhat at 30 ppm | progressive decrease in % S-phase events with increasing drug concentration | < 3% | – | – | – | – | – | – | – | – | – | –
2 | C=C1[C@@H](c2ccc(O)c(OC)c2)O[C@@H](c2ccc(O)c(OC)c2)[C@]12CCC1=C(C2)[C@@H](c2ccc(O)c(OC)c2)O[C@H]1c1ccc(O)c(OC)c1 [I-b] | 81.37 | 0.41 | significance at 6 and 30 ppm | significant decrease in cell populations at the two highest doses | 4.5% | 63% | – | – | – | – | – | – | – | – | –
3 | COc1cc([C@H]2O[C@@H](c3ccc(O)c(OC)c3)[C@H](C)[C@@H]2C)ccc1O [I-c] | 92.9 | 1.81 | increased and significantly induced apoptotic activity at 30.0 ppm | inhibited cells from entering this stage as well in a concentration-dependent manner | – | – | significant reduction of cells at 6 and 30 ppm | reached minimal levels at 30 ppm | significantly increased | 10% | – | – | – | – | –
4 | COc1cc([C@H]2O[C@@H](c3ccc(O)c(OC)c3)[C@@H](C)[C@H]2C)ccc1O [I-d] | 91.14 | 0.35 | increased and significantly induced apoptotic activity at 30.0 ppm | significantly inhibited cell populations in S-phase at all doses | 0% | – | lowest accumulation at 30 ppm | significance decreases at all doses | significantly increased | 24% | 8.2% | 4.7% | 10% | – | –
5 | COc1cc([C@H]2O[C@H](c3ccc(O)c(OC)c3)[C@@H](C)[C@H]2C)ccc1O [I-e] | – | – | without showing increased number of events in sub G0 | significance at the highest concentration | – | – | significant blockage in G2/M at 30 ppm | approximately equal level of cell death as shown with untreated cells | did not show any significant increases | – | – | – | – | approximately 3 fold | 8%
6 | COc1cc(C[C@@H](C)[C@@H](C)Cc2ccc(O)c(OC)c2)ccc1O [I-f] | – | – | no significant increases | did so at 30 ppm | 6% | – | – | – | – | – | – | – | – | – | –
